# Columns and labels:
# [1] = test system: kidney and liver tumors in Tsc1+/− mice; assay: Treatment trial in Tsc1+/− mouse model of Tsc (1 month study); assay type: in vivo; conditions: female mice only
# Description: (§1) Also trials of treatment with a Compound A in mouse models of Tsc may be carried out (1 month study). A first trial is performed in the Tsc1+/− mice, in which there is a sex effect on tumor development, so that female mice are studied only. A second trial is performed in Tsc2+/− mice, in which the use of the carcinogen ENU is performed to enhance and accelerate the rate of tumor formation in the kidney.
# [2] = test system: kidney and liver tumors in Tsc2+/− mice; assay: Treatment trial in Tsc2+/− mouse model of Tsc with carcinogen ENU (1 month study); assay type: in vivo; conditions: ENU to accelerate kidney tumor formation
# Description: as §1
# [3] = test system: NF1 deficient cell or animals (mice) models; assay: Activity in neurofibromatosis, NF1 deficient cell or animal models
# Description: Activity in neurofibromatosis may be determined in NF1 deficient cell or animals (mice) models, e.g. analogously to TSC deficient cell or animals (mice) models.
# [4] = test system: Tsc1−/− and Tsc2−/− and control MEF cell lines; assay: Growth of Tsc1−/−, Tsc2−/− and control MEF cell lines, MTT assay; assay type: cell-based; conditions: Tsc1 null and control MEF cell lines
# Description: MEF cell lines are generated in which there is loss of either Tsc1 or Tsc2 and which have a profound decrease in signaling through Akt. Decreased Akt activation may be seen in response to all stimuli, including serum, PDGF, EGF, insulin, and IGF1. […] In addition, over-expression of PDGFRα by short or long-term transfection leads to increased Akt phosphorylation and stimulation in response to multiple growth factors.
# Signaling in Tsc 1 or Tsc 2 null MEFs in response to IGF1 in combination with a Compound A may be explored. Wortmannin may be used as an […].
# Growth of Tsc1−/− and Tsc2−/− and control MEF cell lines in serum may be assessed in triplicate wells of cells plated at uniform density using the MTT assay. Growth responses are normalized individually for each cell line, to growth in the absence of any stimulation.
smiles,measurement,setting,value
"CO[C@H]1C[C@@H]2CC[C@@H](C)[C@@](O)(O2)C(=O)C(=O)N2CCCC[C@H]2C(=O)O[C@H]([C@H](C)C[C@@H]2CC[C@@H](OCCO)[C@H](OC)C2)CC(=O)[C@H](C)/C=C(\C)[C@@H](O)[C@@H](OC)C(=O)[C@H](C)C[C@H](C)/C=C/C=C/C=C/1C [Compound A, 40-O-(2-hydroxyethyl)-rapamycin]",reduction of kidney and liver tumors,[1],dramatic effect in reducing kidney and liver tumors
same,reduction of kidney and liver tumors,[2],dramatic effect in reducing kidney and liver tumors
same,activity in neurofibromatosis assays,[3],shows activity
same,growth response of the cells to IGF1,[4]; IGF1 stimulation,blocks any growth response of the cells to IGF1
same,growth of the cell lines (MTT assay),"[4]; serum or IGF1 stimulation, all conditions",significantly reduces growth under all conditions

# From patent US20100305150A1, “TUBEROUS SCLEROSIS TREATMENT” (priority 2006, published 2010)
